In BindingDB's records for doi:10.1021/jm0310479 (Roche Diagnostics, 2004):
Where a name gives a salt, the structure may show the parent alone.

What was measured:
[1] = target: RAC-alpha serine/threonine-protein kinase (Homo sapiens, UniProt P31749); test: PKB In Vitro Kinase Assay; details: pH 7.5; 22 °C
Experimental: An ELISA-based assay has been developed for the serine/threonine kinase, PKB-alpha. The assay utilizes an N-terminally biotinylated substrate peptide. When this substrate is phosphorylated by the kinase, the product is recognized by a substrate/sequence-specific antibody, which binds to particular phosphorylated serine residues. […] Calculation of IC50 values was performed with ActivityBase.

[2] = target: cAMP-dependent protein kinase catalytic subunit alpha (Bos taurus, UniProt P00517); test: Fluorescence Polarization-based Assay; details: pH 7.2; 22 °C
Experimental: In this assay, a fluorescent phosphopeptide tracer and the nonfluorescent phosphopeptides generated during a PKA reaction compete for binding to an antiphosphoserine antibody. In a reaction mixture containing phosphopeptide product, the fluorescent tracer is displaced from the antibody and the emission signal becomes depolarized. Enzymatic activity was measured by detection of fluorescence polarity in a Victor 2 reader (Wallac, Finland). […] Calculation of IC50 values was performed with ActivityBase.

Chain of RAC-alpha serine/threonine-protein kinase (P31749 whole entry): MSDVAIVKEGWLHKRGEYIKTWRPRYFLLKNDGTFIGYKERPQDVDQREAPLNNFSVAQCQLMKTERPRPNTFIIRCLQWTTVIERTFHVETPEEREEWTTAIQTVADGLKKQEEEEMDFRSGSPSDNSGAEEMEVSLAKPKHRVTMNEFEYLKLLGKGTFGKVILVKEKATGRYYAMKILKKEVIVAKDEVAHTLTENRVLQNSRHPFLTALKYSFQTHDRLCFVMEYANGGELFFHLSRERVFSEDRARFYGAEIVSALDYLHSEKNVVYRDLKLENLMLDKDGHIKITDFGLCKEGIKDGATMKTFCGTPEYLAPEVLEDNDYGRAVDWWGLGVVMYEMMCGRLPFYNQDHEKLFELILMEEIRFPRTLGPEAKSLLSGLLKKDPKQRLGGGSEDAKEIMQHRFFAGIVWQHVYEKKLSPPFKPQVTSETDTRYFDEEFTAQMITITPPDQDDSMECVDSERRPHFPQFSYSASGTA

IC50 [1] [µM] | IC50 [2] [µM] | SMILES
0.355 | – | COc1ccc(O)c(C(=O)c2ccc(CO[C@@H]3CCCNC[C@H]3NC(=O)c3ccncc3)cc2)c1F [N-((3R,4R)-4-{[4-(2-fluoro-6-hydroxy-3-methoxybenzoyl)benzyl]oxy}azepan-3-yl)isonicotinamide dihydrochloride]
25 | 45 | COc1ccc(O)c(C(=O)c2ccc(NC[C@@H]3CCCNC[C@H]3NC(=O)c3ccncc3)cc2)c1F [N-[(3S,4S)-4-[({4-[(2-fluoro-6-hydroxy-3-methoxyphenyl)carbonyl]phenyl}amino)methyl]azepan-3-yl]pyridine-4-carboxamide trihydrochloride]
